Assay results: patent US11534457B2, “Use of dextran sulfate” (priority 2017, dated 2022)

System: human Schwann cells
Experiment: Gene expression array and pathway analysis, Schwann cells
Assay type: cell-based
Procedure: For each cell line, n=8×25 cm^2 culture flasks were set up. Two flasks were harvested for each cell type on the day of treatment (24 hours after seeding). This represents the Day0 time point. From the remaining flasks, three flasks were treated with Control Medium and three were treated with Culture Medium (CM) containing LMW-DS to give a final concentration of 0.01 mg/ml. Cells from the treated flasks were collected after 48 hours. Therefore the collected data represent (a) untreated cells (Day0 Controls and Day2 Controls) and (b) cells treated with LMW-DS for 48 hours (Day2 LMW-DS treated).
25 cm^2 flasks were coated by adding 2 ml per flask of a solution of 50 μg/ml poly-d-lysine in Hank's balanced salt solution (HBSS) and incubating overnight at 37° C. in the dark. Flasks were washed with cell culture water and air-dried for 30 min in the dark. Flasks were coated by adding 1 ml per flask of a solution of 25 μg/ml laminin in phosphate-buffered saline (PBS) and incubating for 2 hour at 37° C. in the dark. The laminin flasks were washed with PBS three times before plating cells.
Schwann cells growth medium was prepared by adding 10% of fetal bovine serum (FBS) to high-glucose DMEM and pre-warmed to 37° C. Cells were thawed in a 37° C. water bath for no longer than 2 min.
Cells from 12 vials were each gently transferred to a tube containing 10 ml of high-glucose DMEM medium and centrifuged at 400 relative centrifugal field (RCF) for 10 min. Pellet was resuspended in culture medium. The cells from the 12 vials were mixed and distributed equally into the previously coated 25 cm^2 flasks (n=8). Cells were incubated at 37° C. with 5% CO2. Cells were allowed to settle for 24 hours before LMW-DS treatment.
LMW-DS was provided at a stock concentration of 20 mg/ml and was kept in a temperature monitored refrigerator at 4° C. A fresh […]LMW-DS stock (1.0 mg/ml) was prepared in sterile DMEM-F12. The concentrated drug stock was sterile filtered and added to the respective culture media (19.6 ml CM and 0.4 ml LMW-DS stock solution). The Control was made using 19.6 ml CM and 0.4 ml of DMEM-F12. LMW-DS and CM were added to the respective flasks (5 ml each) to reach the 0.01 mg/ml concentration of LMW-DS in each dish with a total of 10 ml CM each.
CM was aspirated into a clean and labelled 15 ml Falcon tube. The flasks (without culture medium) were placed into the −80° C. freezer for 30 minutes. The CM in the Falcon tubes were spun at 3000×g for 5 minutes. Supernatant was removed and the small pellet was re-suspended in 2.5 ml Trizol:Water (4:1) solution at room temperature (RT, […]).
Two aliquots of 1 ml lysate was removed from each sample and 200 μl of chloroform was added to each (0.2 ml of chloroform per 1 ml of TRIzol Reagent used during the cell lysis step) and the tube was shaken vigorously. Samples were stored at RT for 2-3 minutes and subsequently centrifuged at 12,000×g for 15 minutes at 4° C.
The expression data were downloaded into separate files for each cell line. The ‘Background corrected’ expression is the data from the “gProcessedSignal” of the arrays that is the result of the background signal extracted from the actual signal of the relevant probe. This is the most often used variable in array analysis. The background corrected signal was log 2 transformed for all samples for statistical analysis. To reduce the false discovery rate in the samples, the signals that were below ‘expression level’ were removed. The ‘below expression’ level was set at 5 for the log 2 transformed expression values.
Based on the expression pattern of the Control probes on each array it was decided to carry out Median Centering for all arrays before analysis to reduce the variability of the results. […]

**Q.** Which results are given for “low molecular weight dextran sulfate [LMW-DS]”?
**A.** Complex III (cytochrome bc1), mitochondrial oxidative stress pathway (0.01 mg/ml, 48 h): inhibited; TGFβ-induced effect in adhesion of immune cells, activation and aggregation of cells, fibrosis, self-activation of TGFβ (0.01 mg/ml, 48 h): totally abolished; activity and/or levels of glutamate transporters, in particular SLC1A2/3 (0.01 mg/ml, 48 h): increased; aggregate effect on pathways regulating cell movement and attachment (17 molecules) (0.01 mg/ml, 48 h): cell adhesion would be inhibited while cell movement would be activated; cellular attachment from attachment-related molecules (17 differentially expressed) (0.01 mg/ml, 48 h): overall slightly increased attachment; expression of protein complex (CALM, Gβγ, GRM7, PICK1) (0.01 mg/ml, 48 h): induced the expression; number of genes differentially expressed, D0 control vs D2 LMW-DS treated (0.01 mg/ml, 48 h): 1244 genes; number of genes differentially expressed, D2 control vs D2 LMW-DS treated (0.01 mg/ml, 48 h): 700 genes; number of genes: abolished nutrient effect / no effect (0.01 mg/ml, 48 h): 21; number of genes: abolished nutrient effect / significant downregulation (0.01 mg/ml, 48 h): 1; number of genes: abolished nutrient effect / significant upregulation (0.01 mg/ml, 48 h): 13; number of genes: abolished nutrient effect / total (0.01 mg/ml, 48 h): 35; number of genes: enhanced response to nutrients / significant downregulation (0.01 mg/ml, 48 h): 122; number of genes: enhanced response to nutrients / significant upregulation (0.01 mg/ml, 48 h): 441; number of genes: enhanced response to nutrients / total (0.01 mg/ml, 48 h): 563; number of genes: new effect induced by LMW-DS / significant downregulation (0.01 mg/ml, 48 h): 352; number of genes: new effect induced by LMW-DS / significant upregulation (0.01 mg/ml, 48 h): 74; number of genes: new effect induced by LMW-DS / total (0.01 mg/ml, 48 h): 426; number of genes: not different from control / significant downregulation (0.01 mg/ml, 48 h): 42; number of genes: not different from control / significant upregulation (0.01 mg/ml, 48 h): 373; number of genes: not different from control / total (0.01 mg/ml, 48 h): 415; number of genes: total / no effect (0.01 mg/ml, 48 h): 21; number of genes: total / significant downregulation (0.01 mg/ml, 48 h): 517; number of genes: total / significant upregulation (0.01 mg/ml, 48 h): 901; number of genes: total / total (0.01 mg/ml, 48 h): 1439; upstream regulator ANGPT2: activation z-score (D2 LMW-DS treatment): 1.283; upstream regulator ANGPT2: predicted activation state relative D2 control (D2 LMW-DS treatment): Activated; upstream regulator BMP2: activation z-score (D2 LMW-DS treatment): 1.395; upstream regulator BMP2: predicted activation state relative D2 control (D2 LMW-DS treatment): Activated; upstream regulator BMP4: activation z-score (D2 LMW-DS treatment): 0.927; upstream regulator BMP4: predicted activation state relative D2 control (D2 LMW-DS treatment): Activated; upstream regulator BMP7: activation z-score (D2 LMW-DS treatment): 1.86; upstream regulator BMP7: predicted activation state relative D2 control (D2 LMW-DS treatment): Activated; upstream regulator EGF: activation z-score (D2 LMW-DS treatment): 2.059; upstream regulator EGF: predicted activation state relative D2 control (D2 LMW-DS treatment): Activated; upstream regulator FGF2: activation z-score (D2 LMW-DS treatment): 2.37; upstream regulator FGF2: predicted activation state relative D2 control (D2 LMW-DS treatment): Activated; upstream regulator GDF2: activation z-score (D2 LMW-DS treatment): 2.561; upstream regulator GDF2: predicted activation state relative D2 control (D2 LMW-DS treatment): Activated; upstream regulator HGF: activation z-score (D2 LMW-DS treatment): 1.432; upstream regulator HGF: predicted activation state relative D2 control (D2 LMW-DS treatment): Activated; upstream regulator IGF1: activation z-score (D2 LMW-DS treatment): 1.332; upstream regulator IGF1: predicted activation state relative D2 control (D2 LMW-DS treatment): Activated; upstream regulator NRG1: activation z-score (D2 LMW-DS treatment): 1.768; upstream regulator NRG1: predicted activation state relative D2 control (D2 LMW-DS treatment): Activated; upstream regulator NRTN: activation z-score (D2 LMW-DS treatment): 0.958; upstream regulator NRTN: predicted activation state relative D2 control (D2 LMW-DS treatment): Activated; upstream regulator PGF: activation z-score (D2 LMW-DS treatment): 0.254; upstream regulator PGF: predicted activation state relative D2 control (D2 LMW-DS treatment): Activated; upstream regulator TGFβ1: activation z-score (D2 LMW-DS treatment): 1.05; upstream regulator TGFβ1: predicted activation state relative D2 control (D2 LMW-DS treatment): Less inhibited; upstream regulator VEGFA: activation z-score (D2 LMW-DS treatment): 3.4; upstream regulator VEGFA: predicted activation state relative D2 control (D2 LMW-DS treatment): Activated; upstream regulator WISP2: activation z-score (D2 LMW-DS treatment): -0.896; upstream regulator WISP2: predicted activation state relative D2 control (D2 LMW-DS treatment): Less inhibited
